One data set concerns bone resorption. Set-up: method as in PMID 18593621. As to conditions: preclinical models of bone resorption; cited from earlier work.

`Cc1nccn1CCC(O)(P(=O)(O)O)P(=O)(O)O` [Compound 4a, 1-Hydroxy-3-(2-methyl-1H-imidazol-1-yl)propane-1,1-diyldiphosphonic acid]: the melting point lay within 183 to 186 °C.

Turning to `Cc1nccn1CCCC(O)(P(=O)(O)O)P(=O)(O)O` [Compound 4b, 1-Hydroxy-4-(2-methyl-1H-imidazol-1-yl)butane-1,1-diyldiphosphonic acid], the melting point lay in the range of 142 to 145 °C.

Turning to `Cc1nccn1CCCCC(O)(P(=O)(O)O)P(=O)(O)O` [Compound 4c, 1-Hydroxy-5-(2-methyl-1H-imidazol-1-yl)pentane-1,1-diyldiphosphonic acid], the melting point lay in the range of 212 to 215 °C.

`O=P(O)(O)C(O)(Cn1ccnc1)P(=O)(O)O` [ZL, 1-hydroxy-2-(imidazol-1-yl)-ethylidene-1,1-bisphosphonic acid]: in the data set with bone resorption, the “potency relative to clodronate and pamidronate” value was “at least 100 times”; the “potency relative to etidronate” value is reported as “at least 1,000 times”.

(Values after publication PMC6264193, “Synthesis and Biological Evaluation of Novel ^99mTc-Labelled Bisphosphonates as Superior Bone Imaging Agents” (Molecules, 2011).)
